These results are taken from patent US5185452A, “Benzheterocyclyl sulphones” (Imperial Chemical Industries PLC, priority 1989, dated 1993).

The target in the test is T1, aldose reductase (Bos taurus, UniProt P16116).
T1 construct: partially purified aldose reductase is isolated in known manner from bovine lenses; from tissue; host or cells: bovine lenses
In words: in vitro inhibition of partially purified aldose reductase isolated from bovine lenses (reduction of glucose to sorbitol, spectrophotometric). Type of test: biochemical. To be noted: in vitro test. The source says: Thus, in a standard procedure partially purified aldose reductase is isolated in known manner from bovine lenses. The percentage inhibition of this enzyme's ability in vitro to catalyse the reduction of aldoses to polyhydric alcohols, and particularly to reduce glucose to sorbitol, caused by a test compound can then be determined using standard spectrophotometric methods.

For `Cc1c(C)c(S(=O)(=O)C[N+](=O)[O-])c(C)c2c1OC(C)(C)CC2` [Example 2, 2,2,5,7,8-pentamethyl-6-(nitromethylsulphonyl)-chroman], the IC50 (in general, the point on the concentration scale where inhibition reaches its midpoint) came to 13 nM.
